# Data published in ChEMBL document CHEMBL3351853, “Discovery of small molecular inhibitors targeting HIV-1 gp120-CD4 interaction drived from BMS-378806” (Eur J Med Chem, 2014).
# Assay: Inhibition of HIV-1 gp120/CD4 interaction
compound,measurement,value
C[C@@H]1CN(C(=O)c2ccccc2)CCN1C(=O)C(=O)c1c[nH]c2ccccc12,EC50,4 nM
